The subject of data set [1] is human rheumatoid synovial fibroblast. Description: Spontaneous proliferation of human rheumatoid synovial fibroblast. The format is cell-based.
Data set [2] deals with LPS induced fever. The data set is described as follows: LPS fever (antipyretic effects). The data set is classed as in vivo. Particulars: rats, LPS 100 μg/kg s.c., p.o.; (95% limits). As for the experimental part:
LPS fever. An injection of lypopolysaccharide (LPS) at a dose of 100 μg/kg in 5 ml/kg is given subcutaneously, and 2 hours later the temperature is measured using a rectal thermocouple. The rats are then placed into matched treatment groups according to their temperature responses. At time +4 hours, the mTOR inhibitor is administered p.o., and the final temperatures measured again at time +6 hours. The increase in temperature is calculated for each animal and the % inhibition determined for each treatment group compared to the vehicle control group.

Data set [3] has as its system IL-1β induced fever. The data set is described as follows: IL-1 fever (antipyretic effects). Particulars: rats, 100 ng IL-1β i.v., p.o. The data set is classed as in vivo. As for the experimental part: IL-1 fever. Baseline temperature is measured and the rats placed into matched groups. The animals are dosed with the mTOR inhibitor (0.5, 2 or 4 mg/kg) p.o., and 30 minutes later given an injection of 100 ng IL-1β i.v. At time +4hours the final temperatures are measured and the % inhibition calculated as for LPS fever.

The test system of data set [4] is paw hyperalgesia. The data set is described as follows: Anti-nociceptive activity in a model of inflammatory pain (intra-plantar yeast hyperalgesia). The data set is classed as in vivo, male OFA rats. As for the experimental part: Hyperalgesia is induced by an intra-plantar yeast injection and nociception measured by applying increasing pressure to the foot until the animal vocalizes or withdraws its foot from the pressure pad. The baseline pressure required to induce vocalization or withdrawal of the paw of male OFA rats is measured (−2 hours), followed by an intra-plantar injection of 100 μl of a 20% yeast suspension in water in the hind paw. The rats are treated orally with rapamycin or a derivative thereof (0.5, 2 or 4 mg/kg) or vehicle (saline) p.o. 2 hours later (0 hours), and the pressure test repeated 1 and 2 hours after dosing. The pressure required to induce vocalization or paw withdrawal of the compound-treated rats at these time-points is compared to that of vehicle-treated animals.

The subject of data set [5] is rheumatoid arthritis. Description: Placebo-controlled, double blind clinical trial in RA patients who are methotrexate partial responders. The data set is classed as in vivo, human. The conditions noted are these: 6 mg/day in combination with background methotrexate. As for the experimental part:
120 patients who are methotrexate partial responders are randomized in 2 groups to receive the mTOR inhibitor a) or placebo once daily for 12 weeks while continuing their background methotrexate treatment. There is an initial Screening visit (days −21 to −7) prior to the baseline. Disease status is assessed at the Screening and Baseline visits. During the 12 weeks treatment period the patients will be seen at Weeks 1, 2, 4, 8 and 12 and in the follow-up period at Weeks 14, 16, 20 and 24.
The criteria for inclusion of the patients in the trial: they must have a diagnosis of RA as defined by the […] revised ARA criteria with disease duration of no less than 6 months. All patients must have active RA as defined by the following parameters: • at least 6 swollen and 9 tender joints based on 58/60 joint count upon entry into the study • one of the following: erythrocyte sedimentation rate (ESR) >28 mm/hr, C-reactive protein (CRP)>1.5 mg/dL or morning stiffness>45 minutes
Patients must have received methotrexate for at least 16 weeks and must be on a stable dose (≧7.5 mg/week) and route of administration for at least 8 weeks prior to Day 1. […]
The primary efficacy outcome measure is the attainment of ACR20 criteria for improvement of RA and the proportion of patients in each group meeting the ACR20 criteria is determined. […]

The nature of data set [6]: 4-week toxicity study in rats. The format is in vivo. As for the experimental part: (§1) Rapamycin or derivatives thereof are well tolerated at dosages required for use in accordance with the present invention. For example, the NTEL for Compound A in a 4-week toxicity study is 0.5 mg/kg/day in rats and 1.5 mg/kg/day in monkeys.
The nature of data set [7]: 4-week toxicity study in monkeys. The data set is classed as in vivo. As for the experimental part: as §1

A value given as a limit tells only on which side of the number the result lay.

Results on two molecules are retold here after patent publication US20070117833A1, “Pharmaceutical compositions” (priority 2003, published 2007).

`CO[C@H]1C[C@@H]2CC[C@@H](C)[C@@](O)(O2)C(=O)C(=O)N2CCCC[C@H]2C(=O)O[C@H]([C@H](C)C[C@@H]2CC[C@@H](OCCO)[C@H](OC)C2)CC(=O)[C@H](C)/C=C(\C)[C@@H](O)[C@@H](OC)C(=O)[C@H](C)C[C@H](C)/C=C/C=C/C=C/1C` [Compound A, 40-0-(2-hydroxyethyl)-rapamycin]: the “concentration at which maximal effects are observed” value in data set [1] (bromodeoxyuridine method) was 10 pM. Moreover, the “suppression of the growth of synovial cells” value in data set [1] (by both criteria: bromodeoxyuridine incorporation and direct counting of viable cells) is listed as “significantly suppresses”. In data set [1] (direct cell counting), the “concentration at which maximal effects are shown” value was determined as 10 nM. In data set [2], the “ED50 inhibition of LPS-induced fever” value is given as 1.9 (1.21-2.41) mg/kg p.o. The “ED50 inhibition of IL-1β-induced fever” value in data set [3] is < 0.54 mg/kg p.o. Further, the “inhibition of paw hyperalgesia” value is recorded as “significantly inhibits” in data set [4] (2 mg/kg p.o., 1 hour after dosing); “significantly inhibits” in data set [4] (4 mg/kg p.o., 1 hour after dosing); “significantly inhibits” in data set [4] (4 mg/kg p.o., 2 hours after dosing). Besides, the entries for the “ACR Responders (in %) to ACR20” value in data set [5] (Week 2) and in data set [5] (Week 12) were 14.8% and 36.1%, respectively. Also, the figures for the NTEL in data set [6] and in data set [7] were 0.5 mg/kg/day and 1.5 mg/kg/day, respectively.

As for `CO[C@H]1C[C@@H]2CC[C@@H](C)[C@@](O)(O2)C(=O)C(=O)N2CCCC[C@H]2C(=O)O[C@H]([C@H](C)C[C@@H]2CC[C@@H](O)[C@H](OC)C2)CC(=O)[C@H](C)/C=C(\C)[C@@H](O)[C@@H](OC)C(=O)[C@H](C)C[C@H](C)/C=C/C=C/C=C/1C` [rapamycin, Rapamycin, reference compound], the “concentration at which suppression is maximal” value in data set [1] (synovial cell growth assessed by total intracellular ATP levels) was found to be 10 pM.
